The species named for the assay is Mus musculus. In words: Ability to inhibit tumor necrosis factor-alpha (TNF-alpha) production in mouse macrophages stimulated with LPS. In kind it is functional.

Regarding `Nc1nc(N2CCCCC2)c2ccccc2n1`, the IC50 (usually the concentration that inhibits the measured activity by half) was > 100000 nM.
For `O=C(c1ccccc1)N1CCC(c2ncnc3ccccc23)CC1`, the IC50 is 1400 nM.
`Nc1nc(C2CCN(C(=O)Cc3ccccc3)CC2)c2ccccc2n1` registered an IC50 of 2000 nM.
`CN1CCC(c2nc(N)nc3ccccc23)CC1`: the IC50 was > 100000 nM.
For `COc1ccc(Cc2cc(C3CCN(C(=O)c4ccc(Cl)c(Cl)c4)CC3)nc(N)n2)cc1` the value was 700 nM.
For `Cc1cc(C2CCN(C(=O)c3ccccc3)CC2)nc(N)n1` the value was 9000 nM; for `COc1ccc(Cc2cc(C3CCN(C(=O)Cc4ccc(Cl)c(Cl)c4)CC3)nc(N)n2)cc1`, 2100 nM; for `COc1ccc(Cc2cc(C3CCN(C(=O)c4cccc(OC)c4)CC3)nc(N)n2)cc1`, 1200 nM.
For `COc1ccc(Cc2cc(C3CCN(C(=O)Cc4ccc(Cl)cc4)CC3)nc(N)n2)cc1` the value was 2400 nM.
With `Nc1nc(C2CCN(C(=O)CCc3ccccc3)CC2)c2ccccc2n1`, it took 6300 nM to reach half-maximal inhibition (IC50).
Turning to `Nc1nc(C2CCN(C3CCCCC3)CC2)c2ccccc2n1`, inhibition was half-maximal at 53000 nM (IC50).
For `Nc1nc(C2CCN(Cc3ccccc3)CC2)c2ccccc2n1` the value was 16000 nM; for `Nc1nc(Nc2ccccc2)c2ccccc2n1`, > 100000 nM.
The molecule `CCCCCCCC(=O)N1CCC(c2cc(Cc3ccc(OC)cc3)nc(N)n2)CC1` gave an IC50 of 1900 nM.
For `COc1ccc(Cc2cc(C3CCN(C(=O)c4cc(OC)cc(OC)c4)CC3)nc(N)n2)cc1` the value was 1000 nM.
Take `Nc1nc(C2CCNCC2)c2ccccc2n1`: the IC50 was 51000 nM.
`COc1ccc(Cc2cc(C3CCN(C(=O)Cc4ccc(OC)c(OC)c4)CC3)nc(N)n2)cc1`: the concentration for half-maximal inhibition (IC50) was 1200 nM.
For `COc1ccc(Cc2cc(C3CCN(C(=O)c4ccc5c(c4)OCO5)CC3)nc(N)n2)cc1` the value was 600 nM; for `O=C(c1ccccc1)N1CCC(c2nc(Cl)nc3ccccc23)CC1`, 1400 nM; for `COc1ccc(CC(=O)N2CCC(c3cc(Cc4ccc(OC)cc4)nc(N)n3)CC2)cc1`, 1700 nM.
Consider `CC(=O)N1CCC(c2nc(N)nc3ccccc23)CC1`, for which inhibition was half-maximal at 3600 nM (IC50).
For `Nc1nc(C2CCN(CCc3ccccc3)CC2)c2ccccc2n1` the value was > 100000 nM; for `O=C(c1ccccc1)N1CCC(c2nc(O)nc3ccccc23)CC1`, 20000 nM; for `COc1ccc(Cc2cc(C3CCN(C(=O)c4cccc(OC)c4OC)CC3)nc(N)n2)cc1`, 900 nM.
`COc1ccc(Cc2cc(C3CCN(C(=O)C(C)(C)C)CC3)nc(N)n2)cc1` gave a half-maximal inhibitory concentration (IC50) of 5600 nM.
`COc1ccc(Cc2cc(C3CCN(C(=O)c4ccc([N+](=O)[O-])cc4)CC3)nc(N)n2)cc1` showed a 50% inhibitory concentration (IC50) of 700 nM.
As for `COc1ccc(Cc2cc(C3CCN(C(=O)c4ccccc4OC)CC3)nc(N)n2)cc1`, half-maximal inhibition (IC50) was put at 3600 nM.
For the molecule `Nc1nc(C2CCN(C(=O)c3ccccc3)CC2)c2ccccc2n1`, it took 1400 nM to reach half-maximal inhibition (IC50).
The same measure for `COc1ccc(Cc2cc(C3CCN(C(=O)c4ccccc4)CC3)nc(N)n2)cc1`: 1400 nM; for `COc1ccc(Cc2cc(C3CCN(C(=O)Cc4ccccc4)CC3)nc(N)n2)cc1`: 2100 nM; for `COc1ccc(Cc2cc(C3CCN(C(=O)Cc4ccc5c(c4)OCO5)CC3)nc(N)n2)cc1`: 1800 nM.
For `Nc1nc(C2CCN(C(=O)c3ccc4c(c3)OCO4)CC2)c2ccccc2n1` the value was 4500 nM; for `CCCCC(=O)N1CCC(c2nc(N)nc3ccccc23)CC1`, 3000 nM; for `CCC(=O)N1CCC(c2cc(Cc3ccc(OC)cc3)nc(N)n2)CC1`, 4900 nM.
In the case of `COc1ccc(-c2c(C)nc(N)nc2C2CCN(C(=O)c3ccccc3)CC2)cc1`, the IC50 was determined as 9700 nM.
For `CCCC(=O)N1CCC(c2cc(Cc3ccc(OC)cc3)nc(N)n2)CC1` the value was 7200 nM; for `COc1ccc(Cc2cc(C3CCN(C(C)=O)CC3)nc(N)n2)cc1`, 6100 nM.
On to `CN1CCN(c2nc(N)nc3ccccc23)CC1`, for which the IC50 is > 100000 nM.
For `COc1ccc(Cc2cc(C3CCN(C(=O)c4ccc(OC)c(OC)c4)CC3)nc(N)n2)cc1` the value was 900 nM.
Consider `COc1ccc(Cc2cc(C3CCN(C(=O)c4ccccc4[N+](=O)[O-])CC3)nc(N)n2)cc1`, for which the half-maximal inhibitory concentration (IC50) was found to be 1700 nM.
The same measure for `COc1ccc(Cc2cc(C3CCN(C(=O)c4ccc(OC)cc4)CC3)nc(N)n2)cc1`: 500 nM.
`COc1ccc(Cc2cc(C3CCN(C(=O)c4cccc([N+](=O)[O-])c4)CC3)nc(N)n2)cc1` gave an IC50 of 800 nM.
For the molecule `COc1ccc(Cc2cc(C3CCN(C(=O)c4ccc(Cl)cc4)CC3)nc(N)n2)cc1`, the IC50 worked out at 600 nM.
The same measure for `Nc1nc(-c2ccccc2)cc(C2CCN(C(=O)c3ccccc3)CC2)n1`: 5100 nM.
In turn, `Nc1nc(C2CCN(C(=O)C3CCCCC3)CC2)c2ccccc2n1` had an IC50 of 2500 nM.
In the case of `CCCCCC(=O)N1CCC(c2cc(Cc3ccc(OC)cc3)nc(N)n2)CC1`, the IC50 was 1500 nM.

Source of the values: ChEMBL document CHEMBL1133194, “Synthesis and bioactivities of novel piperidylpyrimidine derivatives: inhibitors of tumor necrosis factor-alpha production” (Bioorg Med Chem Lett, 2000).
